Experimental data from patent US20230373972A1, “PIPERAZINE DERIVATIVE, PREPARATION METHOD THEREFOR AND USE THEREOF” (Zhejiang Hisun Pharmaceutical Co., Ltd., priority 2020, published 2023).
Read-outs that look alike come from different tables or passages of the source.

Assays:
[1] = molecular target: T1, Native human Factor XIa protease (Homo sapiens, UniProt P03951); assay: Inhibition of activity of Factor XIa protease (chromogenic substrate S-2366); type: biochemical; conditions: S-2366 1 mM, 37° C. 10 minutes, absorption at 405 nm
T1 construct: The Native human Factor XIa protease was purchased from Abcam; purchased Abcam ab62411
T1 sequence (P03951 388-625 limits assumed): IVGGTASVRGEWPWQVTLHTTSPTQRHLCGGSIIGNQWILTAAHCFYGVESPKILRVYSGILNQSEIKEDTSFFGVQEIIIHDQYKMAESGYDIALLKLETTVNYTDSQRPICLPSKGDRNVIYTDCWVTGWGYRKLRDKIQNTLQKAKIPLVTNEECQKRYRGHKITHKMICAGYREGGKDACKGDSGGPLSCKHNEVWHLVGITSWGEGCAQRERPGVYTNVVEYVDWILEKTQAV
T1 sequence (P03951 19-387 partner limits assumed): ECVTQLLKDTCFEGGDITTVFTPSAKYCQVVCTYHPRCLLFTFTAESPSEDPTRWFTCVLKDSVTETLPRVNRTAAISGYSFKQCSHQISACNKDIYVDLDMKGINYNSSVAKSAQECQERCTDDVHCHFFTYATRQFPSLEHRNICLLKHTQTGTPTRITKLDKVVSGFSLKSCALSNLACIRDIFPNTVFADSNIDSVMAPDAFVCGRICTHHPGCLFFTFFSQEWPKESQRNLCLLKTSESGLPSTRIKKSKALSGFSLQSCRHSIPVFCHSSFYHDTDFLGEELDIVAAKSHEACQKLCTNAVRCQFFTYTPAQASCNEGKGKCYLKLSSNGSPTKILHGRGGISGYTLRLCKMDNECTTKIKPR
From the text: The following method was used to determine an inhibition degree of the compound of the present invention on an activity of Native human Factor XIa protease in vitro. In the method, a Factor XIa chromogenic substrate was used to test the inhibition degree on the activity of the Factor XIa protease. The Native human Factor XIa protease was purchased from Abcam (article number ab62411), and S-2366 was purchased from Chromogenix (article number 82109039). An experimental process was briefly described as follows: a test compound was dissolved in DMSO to prepare a 10 mM storage solution first, then the compound was diluted with a Factor XIa reaction buffer (100 mM Tris-HCl, 200 mM NaCl, 0.02% Tween 20, pH 7.4) by a quadruple gradient, and a final concentration of the test compound in a reaction system ranged from 10,000 nM to […]. The reaction was carried out in a 384-well microplate. 2 μL of the test compounds at different concentrations diluted with the reaction buffer were added to wells first, and 2 μL of 1% DMSO (a final concentration of DMSO in the reaction system was 0.1%) was used to replace blank and control wells. Subsequently, 8 μL of enzyme working solution (a final concentration of Factor XIa was […]) was added to each well, and 8 μL of Factor XIa reaction buffer was used to replace the blank well, centrifuged for 30 seconds, and incubated on ice for 5 minutes. Finally, 10 μL of substrate working solution (a final concentration of S-2366 was 1 mM) was added to each well, and centrifuged for 30 seconds, and the reaction was started. The solution was incubated at 37° C. for 10 minutes to determine a light absorption value at 405 nm. By comparing with a light absorption value of the control group (0.1% DMSO), a percentage inhibition rate of the compound at each concentration was calculated, and nonlinear regression analysis was carried out on value-inhibition rate with the concentration of the compound by GraphPad Prism 5 software, so as to obtain an IC50 value of the compound, as shown in Table 1.

human plasma = assay: In-vitro anticoagulation on human plasma (APTT kit, coagulation time); conditions: concentration of the compound when the coagulation time (APTT) was prolonged twice
[2] = Pharmacokinetics in SD rat; type: in vivo; conditions: male, plasma; for AUC(0-t): read-out: Curve area AUC0-t; for half-life: read-out: Half-life period T1/2(h) (converted); for bioavailability: intragastric 10 mg/kg vs injection 1 mg/kg, read-out: Bioavailability F(%); for Cmax: read-out: Blood concentration Cmax
Method: Taking a SD rat as a test animal, the SD rat was administrated with the compound of the present invention by intravenous injection and/or intragastric administration, and drug concentrations in plasma at different times were determined by a IC/MS/MS method to study pharmacokinetic characteristics of the compound of the present invention in the SD rat.
SD rats, male, 195 g to 235 g, 6 weeks old to 8 weeks old, purchased from Shanghai JieSiJie Laboratory Animal Co., Ltd.
Preparation of drug administrated by intravenous injection: a proper amount of compound to be tested was added to a proper amount of DMAC; (30% Soltol HS 15): Saline=10%: 10%: 80% (v/v/v), and shaken in a vortex manner, so as to prepare a final solution with a concentration of 0.5 mg/mL.
Preparation of drug administrated by intragastric administration: a proper amount of compound to be tested was added to a proper amount of DMAC: (30% Soltol HS 15): Saline=10%: 10%: 80% (v/v/v), and shaken in a vortex manner, so as to prepare a final solution with a concentration of 1 mg/mL.
SD rats were divided into an intravenous injection group of the compound to be tested (3 rats/group) and an intragastric administration group (3 rats/group) of the compound to be tested.
Intravenous injection group: the drug was administrated by dorsalis pedis vein injection (according to a dosage of 1 mg/kg and a volume of 2 mL/kg) without fasting.
Intragastric administration group: the drug was administrated by intragastric administration (according to a dosage of 10 mg/kg and a volume of 10 mL/kg) after fasting overnight, and food was taken 4 hours after administration.
Intravenous injection group: about 150 μL of blood was collected into an EDTA-K2 anticoagulant tube through a jugular vein 0.083 hour, 0.25 hour, 0.5 hour, 1 hour, 2 hours, 4 hours, 8 hours and 24 hours after administration.
Intragastric administration group; about 150 μL of blood was collected into an EDTA-K2 anticoagulant tube through a jugular vein 0.25 how, 0.5 hour, 1 hour, 2 hours, 4 hours, 8 hours and 24 hours after administration.
The blood sample was stored in wet ice first, and plasma was centrifugally separated within 15 minutes after sampling (centrifugation conditions: 2,000 g, 4° C., 5 minutes). The collected upper plasma was stored at −70° C. before analysis.
Contents of the compound to be tested in rat plasma after intravenous injection and intragastric administration were determined by LC-MS/MS.

[3] = iv, injection administration 1 mg/kg
[4] = po, intragastric administration 10 mg/kg

SMILES | IC50 [1] [nM] | CT2 (human plasma) [µM] | AUC(0-t) [2, 3] [ng·h/mL] | half-life [2, 3] [h] | bioavailability ([2]; po) [%] | Cmax [2, 4] [ng/mL] | AUC(0-t) [2, 4] [ng·h/mL] | half-life [2, 4] [h]
Cn1cc2cc(NC(=O)C(Cc3ccccc3)N3CC(=O)N(c4cc(Cl)ccc4-n4cc(Cl)nn4)CC3=O)ccc2n1 (stereo not drawn) [Example 25, 2-(4(5-chloro-2-(4-chloro-1H-1,2,3-triazol-1-yl)phenyl)-2,5-dioxopiperazin-1-yl)-N-(2-methyl-2H-indazol-5-yl)-3-phenylpropanamide] | 14.8 | 6.6 | 431 ± 117 | 0.818 ± 0.37 | 80.4 ± 28.5 | 1390 ± 521 | 3460 ± 1230 | 0.895 ± 0.0751
Cn1cc2cc(NC(=O)C(Cc3ccc(F)cc3)N3CC(=O)N(c4cc(Cl)ccc4-n4cc(Cl)nn4)CC3=O)ccc2n1 (stereo not drawn) [Example 47, 2-(4-(5-Chloro-2-(4-chloro-1H-1,2,3-triazol-1-yl)phenyl)-2,5-dioxopiperazin-1-yl)-3-(4-fluorophenyl)-N-(2-methyl-2H-indazol-5-yl)propanamide] | 45.2 | 9.3 | – | – | – | 2860 ± 268 | 12200 ± 3190 | 2.13 ± 0.18
Cn1ccc(C[C@H](C(=O)Nc2ccc3nn(C)cc3c2)N2CC(=O)N(c3cc(Cl)ccc3-n3cc(Cl)nn3)CC2=O)n1 [Example 113, (R)-2-(4-(5-chloro-2-(4-chloro-1H-1,2,3-triazol-1-yl)phenyl)-2,5-dioxopiperazin-1-yl)-3-(1-methyl-1H-pyrazol-3-yl)-N-(2-methyl-2H-indazol-5-yl)propanamide] | – | – | 552 ± 108 | 0.5 ± 0.0254 | 54.7 ± 46 | 3420 ± 2350 | 3020 ± 2540 | 1.38 ± 0.297
Cn1cc2cc(NC(=O)C(CC3CCCCO3)N3CC(=O)N(c4cc(Cl)ccc4-n4cc(Cl)nn4)CC3=O)ccc2n1 (stereo not drawn) [Example 117, 2-(4-(5-Chloro-2-(4-chloro-1H-1,2,3-triazol-1-yl)phenyl)-2,5-dioxopiperazin-1-yl)-N-(2-methyl-2H-indazol-5-yl)-3-(tetrahydro-2H-pyran-2-yl)propanamide] | – | 6.3 | – | – | – | 2220 ± 552 | 3940 ± 984 | 0.735 ± 0.0242
NC(=O)c1ccc(NC(=O)C(Cc2ccccc2)N2CC(=O)N(c3cc(Cl)ccc3-n3cc(Cl)nn3)CC2=O)cc1F (stereo not drawn) [Example 36, 4-(2-(4-(5-chloro-2-(4-chloro-1H-1,2,3-triazol-1-yl)phenyl)-2,5-dioxopiperazin-1-yl)-3-phenylpropanamido)-2-fluorobenzamide] | 27.1 | 15.9 | – | – | – | 798 ± 868 | 2190 ± 2750 | 1.15 ± 0.0495
O=C(Nc1ccc2nn(C(F)F)cc2c1)C(Cc1ccccc1)N1CC(=O)N(c2cc(Cl)ccc2-n2cc(Cl)nn2)CC1=O (stereo not drawn) [Example 45, 2-(4-(5-Chloro-2-(4-chloro-1H-1,2,3-triazol-1-yl)phenyl)-2,5-dioxopiperazin-1-yl)-N-(2-(difluoromethyl)-2H-indazol-5-yl)-3-phenylpropanamide] | 19.1 | 11.3 | – | – | – | 1170 ± 576 | 4710 ± 2120 | 2.04 ± 1.08
COCCC(C(=O)Nc1ccc2nn(C)cc2c1)N1CC(=O)N(c2cc(Cl)ccc2-n2cc(Cl)nn2)CC1=O (stereo not drawn) [Example 38, 2-(4-(5-Chloro-2-(4-chloro-1H-1,2,3-triazol-1-yl)phenyl)-2,5-dioxopiperazin-1-yl)-4-methoxy-N-(2-methyl-2H-indazol-5-yl)butanamide] | 61.4 | 19.0 | – | – | – | 1360 ± 564 | 3080 ± 281 | 2.63 ± 0.172
Cn1cc2cc(NC(=O)C(Cc3ccc(F)cc3)N3CC(=O)N(c4cc(Cl)ccc4-n4cc(Cl)nn4)CC3=O)ccc2n1 (stereo in doubt) [Example 99, (R)-2-(4-(5-chloro-2-(4-chloro-1H-1,2,3-triazol-1-yl)phenyl)-2,5-dioxopiperazin-1-yl)-3-(4-fluorophenyl)-N-(2-methyl-2H-indazol-5-yl)propanamide] | 24.4 | 6.9 | 326 ± 61.2 | 0.595 ± 0.222 | 149 ± 48.1 | 1100 ± 498 | 4850 ± 1570 | 0.994
Cn1ccc(CC(C(=O)Nc2ccc3nn(C)cc3c2)N2CC(=O)N(c3cc(Cl)ccc3-n3cc(Cl)nn3)CC2=O)n1 (stereo not drawn) [Example 111, 2-(4-(5-chloro-2-(4-chloro-1H-1,2,3-triazol-1-yl)phenyl)-2,5-dioxopiperazin-1-yl)-3-(1-methyl-1H-pyrazol-3-yl)-N-(2-methyl-2H-indazol-5-yl)propanamide] | 45.3 | 19.6 | – | – | – | 1420 ± 703 | 2560 ± 409 | 2.37 ± 1.21
